According to the NIST ThermoML archive (doi:10.1021/acs.jced.6b00178):
Values joined by “and” are separate entries in the source; they are usually repeats but may differ in a detail not shown here. Equal entries are not always repeated.

Legend:
[1] = 100 kPa, Liquid; for viscosity: Concentric cylinders viscometry; for mass density: Vibrating tube method
[2] = xn = mol fraction of the nth substance listed; details: 100 kPa, Liquid; for viscosity: Concentric cylinders viscometry; for mass density: Vibrating tube method

CCCC[n+]1ccn(C)c1.O=S(=O)([N-]S(=O)(=O)C(F)(F)F)C(F)(F)F
[1]
Details | mass density | viscosity
283.15 K | 1451.8 kg/m3 | 106.78 mPa·s and 106.77 mPa·s
288.15 K | 1446.9 kg/m3 | 82.14 mPa·s and 82.16 mPa·s
293.15 K | 1442.1 kg/m3 | 66.36 mPa·s and 64.53 mPa·s
298.15 K | 1437.2 kg/m3 | 51.58 mPa·s and 51.6 mPa·s
303.15 K | 1432.4 kg/m3 | 41.94 mPa·s and 41.93 mPa·s
308.15 K | 1427.6 kg/m3 | 34.6 mPa·s and 34.59 mPa·s
313.15 K | 1422.8 kg/m3 and 1422.9 kg/m3 | 29.48 mPa·s and 28.91 mPa·s
318.15 K | 1418.1 kg/m3 and 1418.2 kg/m3 | 24.47 mPa·s and 24.46 mPa·s
323.15 K | 1413.4 kg/m3 and 1413.5 kg/m3 | 20.93 mPa·s and 20.91 mPa·s
328.15 K | 1408.7 kg/m3 and 1408.8 kg/m3 | 18.07 mPa·s and 18.05 mPa·s
333.15 K | 1404.1 kg/m3 and 1404 kg/m3 | 15.95 mPa·s and 15.72 mPa·s
338.15 K | 1399.4 kg/m3 and 1399.3 kg/m3 | 13.83 mPa·s and 13.8 mPa·s
343.15 K | 1394.8 kg/m3 and 1394.7 kg/m3 | 12.23 mPa·s and 12.2 mPa·s
348.15 K | 1390.2 kg/m3 and 1390.1 kg/m3 | 10.9 mPa·s and 10.86 mPa·s
353.15 K | 1385.6 kg/m3 and 1385.5 kg/m3 | 9.985 mPa·s and 9.72 mPa·s
358.15 K | 1381.1 kg/m3 and 1381 kg/m3 | 8.806 mPa·s and 8.754 mPa·s
363.15 K | 1376.6 kg/m3 and 1376.4 kg/m3 | 7.98 mPa·s and 7.926 mPa·s

CCCC[n+]1ccn(C)c1.O=S(=O)([N-]S(=O)(=O)C(F)(F)F)C(F)(F)F + CC(=O)[O-].CCCCn1cc[n+](C)c1
[2], x1 = 1
Details | mass density [kg/m3] | viscosity [mPa·s]
283.15 K | 1451.8 | 106.78
288.15 K | 1446.9 | 82.14
293.15 K | 1442.1 | 66.36
298.15 K | 1437.2 | 51.58
303.15 K | 1432.4 | 41.94
308.15 K | 1427.6 | 34.6
313.15 K | 1422.9 | 29.48
318.15 K | 1418.2 | 24.47
323.15 K | 1413.5 | 20.93
328.15 K | 1408.8 | 18.07
333.15 K | 1404.1 | 15.95
338.15 K | 1399.4 | 13.83
343.15 K | 1394.8 | 12.23
348.15 K | 1390.2 | 10.9
353.15 K | 1385.6 | 9.985
358.15 K | 1381.1 | 8.806
363.15 K | 1376.6 | 7.98

CCCC[n+]1ccn(C)c1.O=S(=O)([N-]S(=O)(=O)C(F)(F)F)C(F)(F)F + CCCCn1cc[n+](C)c1.COP(=O)([O-])OC
[2], x1 = 1
Details | mass density [kg/m3] | viscosity [mPa·s]
283.15 K | 1451.8 | 106.78
288.15 K | 1446.9 | 82.14
293.15 K | 1442.1 | 66.36
298.15 K | 1437.2 | 51.58
303.15 K | 1432.4 | 41.94
308.15 K | 1427.6 | 34.6
313.15 K | 1422.9 | 29.48
318.15 K | 1418.2 | 24.47
323.15 K | 1413.5 | 20.93
328.15 K | 1408.8 | 18.07
333.15 K | 1404.1 | 15.95
338.15 K | 1399.4 | 13.83
343.15 K | 1394.8 | 12.23
348.15 K | 1390.2 | 10.9
353.15 K | 1385.6 | 9.985
358.15 K | 1381.1 | 8.806
363.15 K | 1376.6 | 7.98

CCCC[n+]1ccn(C)c1.O=S(=O)([N-]S(=O)(=O)C(F)(F)F)C(F)(F)F + CCCCn1cc[n+](C)c1.F[P-](F)(F)(F)(F)F
[2], x1 = 1
Details | mass density [kg/m3] | viscosity [mPa·s]
283.15 K | 1451.8 | 106.77
288.15 K | 1446.9 | 82.16
293.15 K | 1442.1 | 64.53
298.15 K | 1437.2 | 51.6
303.15 K | 1432.4 | 41.93
308.15 K | 1427.6 | 34.59
313.15 K | 1422.8 | 28.91
318.15 K | 1418.1 | 24.46
323.15 K | 1413.4 | 20.91
328.15 K | 1408.7 | 18.05
333.15 K | 1404 | 15.72
338.15 K | 1399.3 | 13.8
343.15 K | 1394.7 | 12.2
348.15 K | 1390.1 | 10.86
353.15 K | 1385.5 | 9.72
358.15 K | 1381 | 8.754
363.15 K | 1376.4 | 7.926

CCCC[n+]1ccn(C)c1.O=S(=O)([N-]S(=O)(=O)C(F)(F)F)C(F)(F)F + CCCCn1cc[n+](C)c1.N#CN=C=[N-]
[2], x1 = 1
Details | mass density [kg/m3] | viscosity [mPa·s]
283.15 K | 1451.8 | 106.77
288.15 K | 1446.9 | 82.16
293.15 K | 1442.1 | 64.53
298.15 K | 1437.2 | 51.6
303.15 K | 1432.4 | 41.93
308.15 K | 1427.6 | 34.59
313.15 K | 1422.8 | 28.91
318.15 K | 1418.1 | 24.46
323.15 K | 1413.4 | 20.91
328.15 K | 1408.7 | 18.05
333.15 K | 1404 | 15.72
338.15 K | 1399.3 | 13.8
343.15 K | 1394.7 | 12.2
348.15 K | 1390.1 | 10.86
353.15 K | 1385.5 | 9.72
358.15 K | 1381 | 8.754
363.15 K | 1376.4 | 7.926

CCCC[n+]1ccn(C)c1.O=S(=O)([N-]S(=O)(=O)C(F)(F)F)C(F)(F)F + CCCCn1cc[n+](C)c1.N#C[S-]
[2], x1 = 1
Details | mass density [kg/m3] | viscosity [mPa·s]
283.15 K | 1451.8 | 106.78
288.15 K | 1446.9 | 82.14
293.15 K | 1442.1 | 66.36
298.15 K | 1437.2 | 51.58
303.15 K | 1432.4 | 41.94
308.15 K | 1427.6 | 34.6
313.15 K | 1422.9 | 29.48
318.15 K | 1418.2 | 24.47
323.15 K | 1413.5 | 20.93
328.15 K | 1408.8 | 18.07
333.15 K | 1404.1 | 15.95
338.15 K | 1399.4 | 13.83
343.15 K | 1394.8 | 12.23
348.15 K | 1390.2 | 10.9
353.15 K | 1385.6 | 9.985
358.15 K | 1381.1 | 8.806
363.15 K | 1376.6 | 7.98

CCCC[n+]1ccn(C)c1.O=S(=O)([N-]S(=O)(=O)C(F)(F)F)C(F)(F)F + CCCCn1cc[n+](C)c1.O=S(=O)([O-])C(F)(F)F
[2], x1 = 1
Details | mass density [kg/m3] | viscosity [mPa·s]
283.15 K | 1451.8 | 106.78
288.15 K | 1446.9 | 82.14
293.15 K | 1442.1 | 66.36
298.15 K | 1437.2 | 51.58
303.15 K | 1432.4 | 41.94
308.15 K | 1427.6 | 34.6
313.15 K | 1422.9 | 29.48
318.15 K | 1418.2 | 24.47
323.15 K | 1413.5 | 20.93
328.15 K | 1408.8 | 18.07
333.15 K | 1404.1 | 15.95
338.15 K | 1399.4 | 13.83
343.15 K | 1394.8 | 12.23
348.15 K | 1390.2 | 10.9
353.15 K | 1385.6 | 9.985
358.15 K | 1381.1 | 8.806
363.15 K | 1376.6 | 7.98

CCCCn1cc[n+](C)c1.COP(=O)([O-])OC [1-butyl-3-methyl-1H-imidazolium dimethylphosphate]
[1]
Details | mass density [kg/m3] | viscosity [mPa·s]
283.15 K | 1168.4 | 2315.6
288.15 K | 1164.9 | 1454.6
293.15 K | 1161.4 | 943.97
298.15 K | 1157.9 | 641.71
303.15 K | 1154.3 | 446.92
308.15 K | 1150.9 | 319.33
313.15 K | 1147.6 | 232.1
318.15 K | 1144.3 | 174.7
323.15 K | 1141 | 133.37
328.15 K | 1137.8 | 103.62
333.15 K | 1134.6 | 81.97
338.15 K | 1131.4 | 65.62
343.15 K | 1128.3 | 53.39
348.15 K | 1125.1 | 44.01
353.15 K | 1122 | 37.08
358.15 K | 1118.9 | 30.94
363.15 K | 1115.7 | 26.33

CC(=O)[O-].CCCCn1cc[n+](C)c1 [1-butyl-3-methylimidazolium acetate]
[1]
Details | mass density [kg/m3] | viscosity [mPa·s]
283.15 K | 1062.7 | 1013.4
288.15 K | 1059.4 | 645.6
293.15 K | 1056 | 421.35
298.15 K | 1052.8 | 292.57
303.15 K | 1049.7 | 206.68
308.15 K | 1046.6 | 150.08
313.15 K | 1043.5 | 110.79
318.15 K | 1040.5 | 85.03
323.15 K | 1037.5 | 66.07
328.15 K | 1034.5 | 52.29
333.15 K | 1031.5 | 42.29
338.15 K | 1028.5 | 34.38
343.15 K | 1025.6 | 28.48
348.15 K | 1022.6 | 23.88
353.15 K | 1019.7 | 20.63
358.15 K | 1016.7 | 17.35
363.15 K | 1013.9 | 15

CCCCn1cc[n+](C)c1.N#CN=C=[N-] [1-butyl-3-methylimidazolium dicyanamide]
[1]
Details | mass density [kg/m3] | viscosity [mPa·s]
283.15 K | 1070 | 58.35
288.15 K | 1066.7 | 45.91
293.15 K | 1063.4 | 36.83
298.15 K | 1060.2 | 30.08
303.15 K | 1057 | 24.94
308.15 K | 1053.8 | 20.98
313.15 K | 1050.6 | 17.86
318.15 K | 1047.5 | 15.38
323.15 K | 1044.4 | 13.38
328.15 K | 1041.3 | 11.74
333.15 K | 1038.2 | 10.38
338.15 K | 1035.2 | 9.251
343.15 K | 1032.1 | 8.298
348.15 K | 1029.1 | 7.488
353.15 K | 1026.1 | 6.794
358.15 K | 1023.2 | 6.196
363.15 K | 1020.3 | 5.677

CCCCn1cc[n+](C)c1.F[B-](F)(F)F [1-butyl-3-methylimidazolium tetrafluoroborate] + CCCC[n+]1ccn(C)c1.O=S(=O)([N-]S(=O)(=O)C(F)(F)F)C(F)(F)F
[2], x2 = 0
Details | mass density [kg/m3] | viscosity [mPa·s]
283.15 K | 1212.5 | 264.99
288.15 K | 1208.8 | 192.43
293.15 K | 1205.2 | 143.08
298.15 K | 1201.6 | 108.74
303.15 K | 1198 | 84.28
308.15 K | 1194.5 | 66.52
313.15 K | 1190.9 | 53.37
318.15 K | 1187.4 | 43.47
323.15 K | 1184 | 35.89
328.15 K | 1180.5 | 30.01
333.15 K | 1177 | 25.38
338.15 K | 1173.6 | 21.68
343.15 K | 1170.2 | 18.7
348.15 K | 1166.8 | 16.26
353.15 K | 1163.4 | 14.26
358.15 K | 1160.1 | 12.59
363.15 K | 1156.8 | 11.2
